Laboratory results as given in US10689378B2, “Triazolopyridine compounds and uses thereof” (Novartis AG, priority 2016, dated 2020).
Where two headings read alike, the source gives them in different places.

What was measured:
[1] = system: H3K27 methylation in G401 cell; experiment: ELISA (H3K27 methylation) assay in G401 cells; type: cell-based, human; details: Homo sapiens
In short: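 G401 cells treated 48 h with 3-fold dilutions (8 or 12 points, top 20 μM). Acid-extracted histones probed by ELISA for H3K27me3 or H3K27me2 with ECL readout, normalized to total H3. Percent inhibition versus DMSO fitted to dose-response curve for IC50.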

[2] = molecular target: wild type PRC2 (wtPRC2) complex (Homo sapiens, UniProt O75530); experiment: EED LC-MS assay (SAH production by PRC2); type: biochemical
In short: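 Pentameric PRC2 (EZH2, SUZ12, EED, Rbap48, AEBP), 12 nM final, preincubated 20 min with compound and SAM, then 1.5 μM biotinylated H3K27me0 peptide, 1 μM SAM, pH 8.0, 120 min at rt. SAH quantified by LC-MS/MS with d4-SAH; control-normalized activity fitted for IC50.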

EED (1-441)-His protein = molecular target: T1, EED (1-441)-His protein (Homo sapiens, UniProt O75530); experiment: EED-H3K27Me3 peptide competition binding assay by AlphaScreen
T1 construct: 30 nM EED (1-441)-His protein
In short: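 Serially diluted compound (12 points, 3-fold) incubated 20 min with 30 nM EED(1-441)-His and 15 nM biotin-H3K27Me3(19-33) peptide in 25 mM HEPES pH 8, 0.02% Tween-20, 0.5% BSA. Ni-chelate acceptor/streptavidin donor beads (10 μg/mL each) added, 1 h rt dark; 615 nm emission normalized to controls, dose-response fit for IC50.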

[3] = G-401, read-out: (c) IC50, ELISA Qualified
[4] = read-out: (b) IC50, EED LC-MS Qualified
[5] = read-out: (a) IC50, EED Alphascreen binding Qualified
[6] = G-401, H3K27 methylation ELISA, read-out: (c) IC50 ELISA Qualified
[7] = PRC2 LC-MS assay, read-out: (b) IC50 EED LC-MS Qualified
[8] = EED-H3K27Me3 peptide competition, AlphaScreen, read-out: (a) IC50 EED Alphascreen binding Qualified

T1 sequence (O75530 whole entry): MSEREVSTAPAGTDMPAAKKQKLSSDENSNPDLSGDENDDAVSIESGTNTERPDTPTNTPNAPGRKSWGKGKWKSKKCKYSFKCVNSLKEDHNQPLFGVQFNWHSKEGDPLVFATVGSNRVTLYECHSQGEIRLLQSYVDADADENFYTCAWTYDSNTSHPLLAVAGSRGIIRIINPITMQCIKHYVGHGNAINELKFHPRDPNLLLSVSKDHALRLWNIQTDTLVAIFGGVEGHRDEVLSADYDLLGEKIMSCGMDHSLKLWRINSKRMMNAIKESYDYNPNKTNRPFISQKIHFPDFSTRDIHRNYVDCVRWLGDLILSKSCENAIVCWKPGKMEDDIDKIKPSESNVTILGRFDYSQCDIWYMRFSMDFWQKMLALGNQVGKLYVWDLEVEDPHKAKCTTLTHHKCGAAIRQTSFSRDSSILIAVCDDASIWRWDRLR
Chain of wild type PRC2 (wtPRC2) complex (O75530 whole entry): as above
Chain of wild type PRC2 (wtPRC2) complex (Q15910 whole entry partner): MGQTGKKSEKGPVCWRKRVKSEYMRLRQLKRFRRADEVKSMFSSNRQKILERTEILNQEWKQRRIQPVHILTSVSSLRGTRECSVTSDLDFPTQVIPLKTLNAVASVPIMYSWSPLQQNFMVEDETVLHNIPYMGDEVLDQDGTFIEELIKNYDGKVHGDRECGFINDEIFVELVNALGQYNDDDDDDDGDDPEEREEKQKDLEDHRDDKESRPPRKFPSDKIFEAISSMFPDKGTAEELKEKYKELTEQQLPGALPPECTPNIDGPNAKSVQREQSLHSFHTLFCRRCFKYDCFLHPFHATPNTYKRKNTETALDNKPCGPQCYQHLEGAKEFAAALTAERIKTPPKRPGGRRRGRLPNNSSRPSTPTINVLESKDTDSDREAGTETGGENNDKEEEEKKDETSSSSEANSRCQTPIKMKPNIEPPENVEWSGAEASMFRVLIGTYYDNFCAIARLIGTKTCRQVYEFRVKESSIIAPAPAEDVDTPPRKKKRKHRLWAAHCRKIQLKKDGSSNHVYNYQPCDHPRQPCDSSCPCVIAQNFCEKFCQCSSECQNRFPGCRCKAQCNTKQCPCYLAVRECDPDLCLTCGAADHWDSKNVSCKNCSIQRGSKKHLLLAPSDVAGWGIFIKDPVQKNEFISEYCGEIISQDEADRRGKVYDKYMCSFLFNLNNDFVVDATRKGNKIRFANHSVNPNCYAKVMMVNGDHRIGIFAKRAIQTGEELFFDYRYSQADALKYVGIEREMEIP
Chain of wild type PRC2 (wtPRC2) complex (Q15022 whole entry partner): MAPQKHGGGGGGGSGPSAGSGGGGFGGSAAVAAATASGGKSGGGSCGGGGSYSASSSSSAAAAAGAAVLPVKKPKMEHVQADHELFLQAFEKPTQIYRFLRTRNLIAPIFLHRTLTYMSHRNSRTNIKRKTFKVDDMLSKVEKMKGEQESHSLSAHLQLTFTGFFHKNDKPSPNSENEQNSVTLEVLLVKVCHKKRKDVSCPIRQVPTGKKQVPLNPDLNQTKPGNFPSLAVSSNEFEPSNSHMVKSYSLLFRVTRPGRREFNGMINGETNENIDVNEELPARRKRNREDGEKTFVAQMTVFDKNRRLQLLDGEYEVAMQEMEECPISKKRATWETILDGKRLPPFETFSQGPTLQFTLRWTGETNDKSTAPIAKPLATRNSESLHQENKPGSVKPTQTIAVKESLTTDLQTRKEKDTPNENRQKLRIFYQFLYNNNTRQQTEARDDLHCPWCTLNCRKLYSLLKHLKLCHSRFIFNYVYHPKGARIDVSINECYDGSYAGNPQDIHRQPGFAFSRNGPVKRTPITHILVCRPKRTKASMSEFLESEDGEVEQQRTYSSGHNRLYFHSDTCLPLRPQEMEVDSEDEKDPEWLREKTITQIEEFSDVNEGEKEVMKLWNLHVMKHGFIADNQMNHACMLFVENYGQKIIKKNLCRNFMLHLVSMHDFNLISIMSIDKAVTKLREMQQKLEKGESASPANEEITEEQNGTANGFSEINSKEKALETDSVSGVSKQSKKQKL
Chain of wild type PRC2 (wtPRC2) complex (Q09028 whole entry partner): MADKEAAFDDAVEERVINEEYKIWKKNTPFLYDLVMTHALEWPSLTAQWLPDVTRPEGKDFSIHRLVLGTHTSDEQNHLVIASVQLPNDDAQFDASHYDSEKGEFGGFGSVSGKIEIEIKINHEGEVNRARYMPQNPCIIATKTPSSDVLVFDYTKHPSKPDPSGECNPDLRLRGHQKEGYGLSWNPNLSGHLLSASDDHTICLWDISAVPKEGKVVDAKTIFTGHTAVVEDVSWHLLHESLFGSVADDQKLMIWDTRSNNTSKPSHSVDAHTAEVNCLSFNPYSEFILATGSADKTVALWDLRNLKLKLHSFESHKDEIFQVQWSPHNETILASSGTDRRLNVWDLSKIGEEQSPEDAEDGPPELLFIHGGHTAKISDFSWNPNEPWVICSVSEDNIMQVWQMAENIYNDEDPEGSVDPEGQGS
Chain of wild type PRC2 (wtPRC2) complex (Q6ZN18 whole entry partner): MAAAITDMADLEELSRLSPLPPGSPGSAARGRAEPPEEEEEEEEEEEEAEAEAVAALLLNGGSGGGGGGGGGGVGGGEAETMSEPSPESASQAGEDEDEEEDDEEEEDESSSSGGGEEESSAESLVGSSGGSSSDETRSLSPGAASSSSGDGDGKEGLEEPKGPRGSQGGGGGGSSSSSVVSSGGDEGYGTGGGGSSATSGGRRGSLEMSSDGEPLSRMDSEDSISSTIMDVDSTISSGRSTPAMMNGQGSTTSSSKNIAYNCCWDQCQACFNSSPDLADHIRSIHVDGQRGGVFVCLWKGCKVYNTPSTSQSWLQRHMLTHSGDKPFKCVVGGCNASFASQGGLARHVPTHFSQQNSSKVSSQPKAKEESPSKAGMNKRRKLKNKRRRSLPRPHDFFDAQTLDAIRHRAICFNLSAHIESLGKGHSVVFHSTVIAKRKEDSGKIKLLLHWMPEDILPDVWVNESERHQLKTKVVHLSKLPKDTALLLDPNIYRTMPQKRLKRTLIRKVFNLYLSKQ

COc1cccc(F)c1CNc1ccc(-c2cnc(C)nc2C)c2nncn12 [Example 3, 8-(2,4-Dimethylpyrimidin-5-yl)-N-(2-fluoro-6-methoxybenzyl)-[1,2,4]triazolo[4,3-a]pyridin-5-amine]
IC50 [1, 3]: 10.7 nM
IC50 [2, 4]: 23.6 nM
IC50 (EED (1-441)-His protein; [5]): 17.5 nM

COc1cccc(F)c1CNc1ccc(-c2ccc(C(=O)N3CCCC3)cc2)c2nncn12 [Example 107, (4-(5-((2-fluoro-6-methoxy benzyl)amino)-[1,2,4]triazolo[4,3-a]pyridin-8-yl)phenyl)(pyrrolidin-1-yl) methanone]
IC50 [1, 3]: 12.6 nM
IC50 [2, 4]: 108 nM
IC50 (EED (1-441)-His protein; [5]): 21.4 nM

COc1cccc(F)c1CNc1ccc(-c2cnccc2Cl)c2nncn12 [Example 236, 8-(4-chloropyridin-3-yl)-N-(2-fluoro-6-methoxybenzyl)-[1,2,4]triazolo[4,3-a]pyridin-5-amine]
IC50 [1, 6]: 66.3 nM
IC50 [2, 7]: 116 nM
IC50 (EED (1-441)-His protein; [8]): 83.6 nM

COc1cccc(F)c1CNc1ccc(-c2cncnc2C)c2nncn12 [Example 221, N-(2-fluoro-6-methoxybenzyl)-8-(4-methylpyrimidin-5-yl)-[1,2,4] triazolo[4,3-a]pyridin-5-amine]
IC50 [1, 6]: 12.1 nM
IC50 [2, 7]: 14.9 nM
IC50 (EED (1-441)-His protein; [8]): 21.6 nM

COc1cccc(F)c1CNc1ccc(-c2cnc(C(=O)N(C)C)cc2C)c2nncn12 [Example 252, 5-(5-((2-fluoro-6-methoxybenzyl)amino)-[1,2,4]triazolo[4,3-a]pyridin-8-yl)-N,N,4-trimethylpicolinamide]
IC50 [1, 6]: 4.4 nM
IC50 [2, 7]: 7.9 nM
IC50 (EED (1-441)-His protein; [8]): 14.1 nM

COc1cccc(F)c1CNc1ccc(-c2cnn(C3CC3)c2)c2nncn12 [Example 210, 8-(1-cyclopropyl-1H-pyrazol-4-yl)-N-(2-fluoro-6-methoxybenzyl)-[1,2,4] triazolo[4,3-a]pyridin-5-amine]
IC50 [1, 6]: 61.9 nM
IC50 [2, 7]: 165 nM
IC50 (EED (1-441)-His protein; [8]): 42.4 nM

COc1cc(F)cc(F)c1CNc1ccc(-c2ccncc2)c2nncn12 [Example 228, N-(2,4-difluoro-6-methoxybenzyl)-8-(pyridin-4-yl)-[1,2,4]triazolo[4,3-a]pyridin-5-amine]
IC50 [1, 6]: 43.7 nM
IC50 [2, 7]: 98.6 nM
IC50 (EED (1-441)-His protein; [8]): 78.9 nM

COc1cccc(F)c1CNc1ccc(-c2ccccn2)c2nncn12 [Example 5, N-(2-Fluoro-6-methoxybenzyl)-8-(pyridin-2-yl)-[1,2,4]triazolo[4,3-a]pyridin-5-amine]
IC50 [1, 3]: 42.6 nM
IC50 [2, 4]: 137 nM
IC50 (EED (1-441)-His protein; [5]): 48.2 nM

COc1cccc(F)c1CNc1ccc(-c2cc(C)nn2C)c2nncn12 [Example 288, 8-(1,3-dimethyl-1H-pyrazol-5-yl)-N-(2-fluoro-6-methoxybenzyl)-[1,2,4]triazolo[4,3-a] pyridin-5-amine]
IC50 [1, 6]: 6.3 nM
IC50 [2, 7]: 23.4 nM
IC50 (EED (1-441)-His protein; [8]): 12.7 nM

COc1ccncc1-c1ccc(NCc2c(F)cccc2OC)n2cnnc12 [Example 190, N-(2-fluoro-6-methoxybenzyl)-8-(4-methoxypyridin-3-yl)-[1,2,4] triazolo[4,3-a]pyridin-5-amine]
IC50 [1, 6]: 13.1 nM
IC50 [2, 7]: 240 nM
IC50 (EED (1-441)-His protein; [8]): 41.5 nM

COc1cccc(F)c1CNc1ccc(-c2c(C)noc2C)c2nncn12 [Example 139, 8-(3,5-dimethylisoxazol-4-yl)-N-(2-fluoro-6-methoxybenzyl)-[1,2,4]triazolo[4,3-a] pyridin-5-amine]
IC50 [1, 3]: 11.7 nM
IC50 [2, 4]: 46.5 nM
IC50 (EED (1-441)-His protein; [5]): 26 nM

COc1cccc(F)c1CNc1ccc(-c2cnc(N3CCN(C(C)C)CC3)c(Cl)c2)c2nncn12 [Example 109, 8-(5-chloro-6-(4-isopropylpiperazin-1-yl)pyridin-3-yl)-N-(2-fluoro-6-methoxybenzyl)-[1,2,4] triazolo[4,3-a]pyridin-5-amine]
IC50 [1, 3]: 103 nM
IC50 [2, 4]: 299 nM
IC50 (EED (1-441)-His protein; [5]): 27.1 nM

COc1cccc(F)c1CNc1ccc(-c2ccc(N3CCOCC3)nc2)c2nncn12 [Example 172, N-(2-fluoro-6-methoxybenzyl)-8-(6-morpholinopyridin-3-yl)-[1,2,4]triazolo [4,3-a]pyridin-5-amine]
IC50 [1, 6]: 111 nM
IC50 [2, 7]: 162 nM
IC50 (EED (1-441)-His protein; [8]): 56.4 nM

COc1cccc(F)c1CNc1ccc(-c2cncc(C3=NC(C)(C)CO3)c2)c2nncn12 [Example 199, 8-(5-(4,4-dimethyl-4,5-dihydrooxazol-2-yl)pyridin-3-yl)-N-(2-fluoro-6-methoxybenzyl)-[1,2,4]triazolo[4,3-a] pyridin-5-amine]
IC50 [1, 6]: 31.3 nM
IC50 [2, 7]: 328 nM
IC50 (EED (1-441)-His protein; [8]): 23.7 nM

COc1ccccc1CNc1ccc(-c2cccc(CCN(C)C)c2)c2nncn12 [Example 94, 8-(3-(2-(dimethylamino)ethyl)phenyl)-N-(2-methoxybenzyl)-[1,2,4]triazolo[4,3-a] pyridin-5-amine]
IC50 [1, 3]: 41.1 nM
IC50 [2, 4]: 62.3 nM
IC50 (EED (1-441)-His protein; [5]): 26.5 nM

COc1cccc(F)c1CNc1ccc(-c2ccc(F)nc2)c2nncn12 [Example 159, N-(2-fluoro-6-methoxybenzyl)-8-(6-fluoropyridin-3-yl)-[1,2,4]triazolo[4,3-a] pyridin-5-amine]
IC50 [1, 3]: 41 nM
IC50 [2, 4]: 102 nM
IC50 (EED (1-441)-His protein; [5]): 49 nM

COc1ccccc1CNc1ccc(-c2ccccc2F)c2nncn12 [Example 47, 8-(2-fluorophenyl)-N-(2-methoxybenzyl)-[1,2,4] triazolo[4,3-a]pyridin-5-amine]
IC50 [1, 3]: 293 nM
IC50 [2, 4]: 1330 nM
IC50 (EED (1-441)-His protein; [5]): 98.5 nM

COc1cccc(F)c1CNc1ccc(-c2nc(C)no2)c2nncn12 [Example 11, N-(2-Fluoro-6-methoxybenzyl)-8-(3-methyl-1,2,4-oxadiazol-5-yl)-[1,2,4]triazolo[4,3-a]pyridin-5-amine]
IC50 [1, 3]: 40.5 nM
IC50 [2, 4]: 119 nM
IC50 (EED (1-441)-His protein; [5]): 30.7 nM

COc1cccc(F)c1CNc1ccc(-c2ccc(CC#N)nc2C)c2nncn12 [Example 339, 2-(5-(5-((2-fluoro-6-methoxybenzyl)amino)-[1,2,4]triazolo[4,3-a]pyridin-8-yl)-6-methylpyridin-2-yl) acetonitrile]
IC50 [1, 6]: 6.7 nM
IC50 [2, 7]: 20.9 nM
IC50 (EED (1-441)-His protein; [8]): 6 nM

COc1cccc(F)c1CNc1ccc(-c2ccc(C(=O)N(C)C)cc2C)c2nncn12 [Example 231, 4-(5-((2-fluoro-6-methoxybenzyl)amino)-[1,2,4]triazolo[4,3-a]pyridin-8-yl)-N,N,3-trimethylbenzamide]
IC50 [1, 6]: 3.4 nM
IC50 [2, 7]: 29.1 nM
IC50 (EED (1-441)-His protein; [8]): 7.7 nM

COc1cccc(F)c1CNc1ccc(-c2c(C)nn(C)c2C)c2nncn12 [Example 124, N-(2-fluoro-6-methoxybenzyl)-8-(1,3,5-trimethyl-1H-pyrazol-4-yl)-[1,2,4] triazolo[4,3-a]pyridin-5-amine]
IC50 [1, 3]: 24.7 nM
IC50 [2, 4]: 64.5 nM
IC50 (EED (1-441)-His protein; [5]): 52.1 nM

COc1cccc(F)c1CNc1ccc(-c2cccnc2CC#N)c2nncn12 [Example 341, 2-(3-(5-((2-fluoro-6-methoxybenzyl)amino)-[1,2,4]triazolo[4,3-a]pyridin-8-yl)pyridin-2-yl)acetonitrile]
IC50 [1, 6]: 21.9 nM
IC50 [2, 7]: 95.5 nM
IC50 (EED (1-441)-His protein; [8]): 21.6 nM

COc1cccc(F)c1CNc1ccc(-c2ccc(C(=O)N(C)C)cc2)c2nncn12 [Example 206, 4-(5-((2-fluoro-6-methoxybenzyl)amino)-[1,2,4]triazolo[4,3-a]pyridin-8-yl)-N,N-dimethylbenzamide]
IC50 [1, 6]: 24.1 nM
IC50 [2, 7]: 48 nM
IC50 (EED (1-441)-His protein; [8]): 24 nM

COc1cccc(F)c1CNc1ccc(-c2cn(C)nc2C(F)F)c2nncn12 [Example 313, 8-(3-(difluoromethyl)-1-methyl-1H-pyrazol-4-yl)-N-(2-fluoro-6-methoxybenzyl)-[1,2,4]triazolo[4,3-a]pyridin-5-amine]
IC50 [1, 6]: 4 nM
IC50 [2, 7]: 14.7 nM
IC50 (EED (1-441)-His protein; [8]): 3.4 nM

COc1cccc(F)c1CNc1ccc(-c2ccnc(C)c2C)c2nncn12 [Example 287, 8-(2,3-dimethylpyridin-4-yl)-N-(2-fluoro-6-methoxybenzyl)-[1,2,4]triazolo[4,3-a] pyridin-5-amine]
IC50 [1, 6]: 6.6 nM
IC50 [2, 7]: 38.6 nM
IC50 (EED (1-441)-His protein; [8]): 10.1 nM

CCc1ncncc1-c1ccc(NCc2c(F)cccc2OC)n2cnnc12 [Example 280, 8-(4-ethylpyrimidin-5-yl)-N-(2-fluoro-6-methoxybenzyl)-[1,2,4]triazolo[4,3-a]pyridin-5-amine]
IC50 [1, 6]: 11.8 nM
IC50 [2, 7]: 317 nM
IC50 (EED (1-441)-His protein; [8]): 23.7 nM

COc1cccc(F)c1CNc1ccc(-n2cccn2)c2nncn12 [Example 357, N-(2-fluoro-6-methoxybenzyl)-8-(1H-pyrazol-1-yl)-[1,2,4]triazolo[4,3-a]pyridin-5-amine]
IC50 ([1]; G-401, read-out: (c) IC50 ELISA Qualified): 38.9 nM
IC50 ([2]; read-out: (b) IC50 EED LC-MS Qualified): 144 nM
IC50 (EED (1-441)-His protein; read-out: (a) IC50 EED Alphascreen binding Qualified): 25.6 nM

COc1ccccc1CNc1ccc(-c2ccc(C(N)=O)cc2)c2nncn12 [Example 72, 4-(5-((2-methoxybenzyl)amino)-[1,2,4]triazolo[4,3-a]pyridin-8-yl)benzamide]
IC50 [1, 3]: 43.3 nM
IC50 [2, 4]: 1010 nM
IC50 (EED (1-441)-His protein; [5]): 12.9 nM
